Measured values: US20260297081A1, “COMPOUNDS AND METHODS OF TREATING CANCERS” (Cullgen Inc., priority 2023, published 2026)

Each molecule was assayed on MCF7 cells (assay: Anti-proliferation (viability) of MCF7 cells (Table 7, FIG. 2B)). Details: Homo sapiens, MCF7, MCF7 cells, 3-6 days, 10-point serial dilution; read-out: GI IC50 in MCF-7.
Format: cell-based

Row | Compound | IC50
1 | CC(=O)c1c(C)c2cnc(Nc3ccc(N4CC5(CN(CC(=O)N6CC7(CC(Nc8nc(NC(C)C)ccc8C(=O)Nc8ccc(N(C)C)nn8)C7)C6)C5)C4)cn3)nc2n(C2CCCC2)c1=O [CPD-423, 2-((2-(2-(6-(6-((6-acetyl-8-cyclopentyl-5-methyl-7-oxo-7,8-dihydropyrido[2,3-d]pyrimidin-2-yl)amino)pyridin-3-yl)-2,6-diazaspiro[3.3]heptan-2-yl)acetyl)-2-azaspiro[3.3]heptan-6-yl)amino)-N-(6-(dimethylamino)pyridazin-3-yl)-6-(isopropylamino)nicotinamide] | 50 to 100 nM
2 | CC(=O)c1c(C)c2cnc(Nc3ccc(N4CC5(CN(CC(=O)N6CCC(Nc7nc(NC(C)C)ccc7C(=O)Nc7ccc(N(C)C)nn7)C6)C5)C4)cn3)nc2n(C2CCCC2)c1=O (centres unmarked) [CPD-424, 2-((1-(2-(6-(6-((6-acetyl-8-cyclopentyl-5-methyl-7-oxo-7,8-dihydropyrido[2,3-d]pyrimidin-2-yl)amino)pyridin-3-yl)-2,6-diazaspiro[3.3]heptan-2-yl)acetyl)pyrrolidin-3-yl)amino)-N-(6-(dimethylamino)pyridazin-3-yl)-6-(isopropylamino)nicotinamide] | > 100 nM
3 | CC(=O)c1c(C)c2cnc(Nc3ccc(N4CCC(N(C)CC(=O)N5CCC(Nc6nc(NC(C)C)ccc6C(=O)Nc6ccc(N(C)C)nn6)C5)CC4)cn3)nc2n(C2CCCC2)c1=O (centres unmarked) [CPD-426, 2-((1-(N-(1-(6-((6-acetyl-8-cyclopentyl-5-methyl-7-oxo-7,8-dihydropyrido[2,3-d]pyrimidin-2-yl)amino)pyridin-3-yl)piperidin-4-yl)-N-methylglycyl)pyrrolidin-3-yl)amino)-N-(6-(dimethylamino)pyridazin-3-yl)-6-(isopropylamino)nicotinamide] | < 50 nM
4 | CC(=O)c1c(C)c2cnc(Nc3ccc(N4CCC(N(C)CC(=O)N5CC(Nc6nc(NC(C)C)ccc6C(=O)Nc6ccc(N(C)C)nn6)C5)CC4)cn3)nc2n(C2CCCC2)c1=O [CPD-427, 2-((1-(N-(1-(6-((6-acetyl-8-cyclopentyl-5-methyl-7-oxo-7,8-dihydropyrido[2,3-d]pyrimidin-2-yl)amino)pyridin-3-yl)piperidin-4-yl)-N-methylglycyl)azetidin-3-yl)amino)-N-(6-(dimethylamino)pyridazin-3-yl)-6-(isopropylamino)nicotinamide] | < 50 nM
5 | CNc1ccc(C(=O)Nc2ccc(N(C)C)nn2)c(NC2CC(C(=O)NC3CCC4(CCN(c5ccc(Nc6ncc7c(C)c(C(C)=O)c(=O)n(C8CCCC8)c7n6)nc5)CC4)C3)C2)n1 (centres unmarked) [CPD-428, 2-((3-((8-(6-((6-acetyl-8-cyclopentyl-5-methyl-7-oxo-7,8-dihydropyrido[2,3-d]pyrimidin-2-yl)amino)pyridin-3-yl)-8-azaspiro[4.5]decan-2-yl)carbamoyl)cyclobutyl)amino)-N-(6-(dimethylamino)pyridazin-3-yl)-6-(methylamino)nicotinamide] | > 100 nM
6 | CNc1ccc(C(=O)Nc2ccc(N(C)C)nn2)c(NC2CCC(N(C)C(=O)CN3CCN(c4ccc(Nc5ncc6c(C)c(C(C)=O)c(=O)n(C7CCCC7)c6n5)nc4)CC3)C2)n1 (centres unmarked) [CPD-430, 2-((3-(2-(4-(6-((6-acetyl-8-cyclopentyl-5-methyl-7-oxo-7,8-dihydropyrido[2,3-d]pyrimidin-2-yl)amino)pyridin-3-yl)piperazin-1-yl)-N-methylacetamido)cyclopentyl)amino)-N-(6-(dimethylamino)pyridazin-3-yl)-6-(methylamino)nicotinamide] | > 100 nM
7 | CC(=O)c1c(C)c2cnc(Nc3ccc(N4CCN(C(C)CC(=O)N5CCC(Nc6nc(NC(C)C)ccc6C(=O)Nc6cn(C)c(C7CC7)n6)CC5)CC4)cn3)nc2n(C2CCCC2)c1=O (centres unmarked) [CPD-431, 2-((1-(3-(4-(6-((6-acetyl-8-cyclopentyl-5-methyl-7-oxo-7,8-dihydropyrido[2,3-d]pyrimidin-2-yl)amino)pyridin-3-yl)piperazin-1-yl)butanoyl)piperidin-4-yl)amino)-N-(2-cyclopropyl-1-methyl-1H-imidazol-4-yl)-6-(isopropylamino)nicotinamide] | 50 to 100 nM
8 | [2H]C([2H])([2H])Nc1ccc(C(=O)Nc2ccc(N(C)C)nn2)c(NC2CC3(C2)CN(C(=O)CCN2CCN(c4ccc(Nc5ncc6c(C)c(C(C)=O)c(=O)n(C7CCCC7)c6n5)nc4)CC2)C3)n1 [CPD-432, 2-((2-(3-(4-(6-((6-acetyl-8-cyclopentyl-5-methyl-7-oxo-7,8-dihydropyrido[2,3-d]pyrimidin-2-yl)amino)pyridin-3-yl)piperazin-1-yl)propanoyl)-2-azaspiro[3.3]heptan-6-yl)amino)-N-(6-(dimethylamino)pyridazin-3-yl)-6-((methyl-d3)amino)nicotinamide] | < 50 nM
9 | CC(=O)c1c(C)c2cnc(Nc3ccc(N4CCN(C(CC(=O)N5CC6(CC(Nc7nc(NC(C)C)ccc7C(=O)Nc7cc(C)n(C)n7)C6)C5)C(F)(F)F)CC4)cn3)nc2n(C2CCCC2)c1=O (centres unmarked) [CPD-433, 2-((2-(3-(4-(6-((6-acetyl-8-cyclopentyl-5-methyl-7-oxo-7,8-dihydropyrido[2,3-d]pyrimidin-2-yl)amino)pyridin-3-yl)piperazin-1-yl)-4,4,4-trifluorobutanoyl)-2-azaspiro[3.3]heptan-6-yl)amino)-N-(1,5-dimethyl-1H-pyrazol-3-yl)-6-(isopropylamino)nicotinamide] | < 50 nM
10 | [2H]C([2H])([2H])Nc1ccc(C(=O)Nc2cc(C)n(C)n2)c(NC2CC3(C2)CN(C(=O)CC(N2CCN(c4ccc(Nc5ncc6c(C)c(C(C)=O)c(=O)n(C7CCCC7)c6n5)nc4)CC2)C(F)(F)F)C3)n1 (centres unmarked) [CPD-434, 2-((2-(3-(4-(6-((6-acetyl-8-cyclopentyl-5-methyl-7-oxo-7,8-dihydropyrido[2,3-d]pyrimidin-2-yl)amino)pyridin-3-yl)piperazin-1-yl)-4,4,4-trifluorobutanoyl)-2-azaspiro[3.3]heptan-6-yl)amino)-N-(1,5-dimethyl-1H-pyrazol-3-yl)-6-((methyl-d3)amino)nicotinamide] | < 50 nM
11 | [2H]C([2H])([2H])Nc1ccc(C(=O)Nc2cn(C)c(C3CC3)n2)c(NC2CC3(C2)CN(C(=O)CC(N2CCN(c4ccc(Nc5ncc6c(C)c(C(C)=O)c(=O)n(C7CCCC7)c6n5)nc4)CC2)C(F)(F)F)C3)n1 (centres unmarked) [CPD-435, 2-((2-(3-(4-(6-((6-acetyl-8-cyclopentyl-5-methyl-7-oxo-7,8-dihydropyrido[2,3-d]pyrimidin-2-yl)amino)pyridin-3-yl)piperazin-1-yl)-4,4,4-trifluorobutanoyl)-2-azaspiro[3.3]heptan-6-yl)amino)-N-(2-cyclopropyl-1-methyl-1H-imidazol-4-yl)-6-((methyl-d3)amino)nicotinamide] | < 50 nM
12 | CC(=O)c1c(C)c2cnc(Nc3ccc(N4CCN(C(CC(=O)N5CC6(CC(Nc7nc(NC(C)C)ccc7C(=O)Nc7cn(C)c(C8CC8)n7)C6)C5)C(F)(F)F)CC4)cn3)nc2n(C2CCCC2)c1=O (centres unmarked) [CPD-436, 2-((2-(3-(4-(6-((6-acetyl-8-cyclopentyl-5-methyl-7-oxo-7,8-dihydropyrido[2,3-d]pyrimidin-2-yl)amino)pyridin-3-yl)piperazin-1-yl)-4,4,4-trifluorobutanoyl)-2-azaspiro[3.3]heptan-6-yl)amino)-N-(2-cyclopropyl-1-methyl-1H-imidazol-4-yl)-6-(isopropylamino)nicotinamide] | < 50 nM
13 | CC(=O)c1c(C)c2cnc(Nc3ccc(N4CCC5(CC4)CC(C(=O)NC4CC6(C4)CC(Nc4nc(NC(C)C)ccc4C(=O)Nc4ccc(N(C)C)nn4)C6)C5)cn3)nc2n(C2CCCC2)c1=O (centres unmarked) [CPD-437, 7-(6-((6-acetyl-8-cyclopentyl-5-methyl-7-oxo-7,8-dihydropyrido[2,3-d]pyrimidin-2-yl)amino)pyridin-3-yl)-N-(6-((3-((6-(dimethylamino)pyridazin-3-yl)carbamoyl)-6-(isopropylamino)pyridin-2-yl)amino)spiro[3.3]heptan-2-yl)-7-azaspiro[3.5]nonane-2-carboxamide] | > 100 nM
14 | [2H]C([2H])([2H])Nc1ccc(C(=O)Nc2ccc(N(C)C)nn2)c(NC2CC3(CC(NC(=O)C(C)N4CCN(c5ccc(Nc6ncc7c(C)c(C(C)=O)c(=O)n(C8CCCC8)c7n6)nc5)CC4)C3)C2)n1 (centres unmarked) [CPD-438, 2-((6-(2-(4-(6-((6-acetyl-8-cyclopentyl-5-methyl-7-oxo-7,8-dihydropyrido[2,3-d]pyrimidin-2-yl)amino)pyridin-3-yl)piperazin-1-yl)propanamido)spiro[3.3]heptan-2-yl)amino)-N-(6-(dimethylamino)pyridazin-3-yl)-6-((methyl-d3)amino)nicotinamide] | 50 to 100 nM
15 | [2H]C([2H])([2H])Nc1ccc(C(=O)Nc2ccc(N(C)C)nn2)c(NC2CC3(CC(NC(=O)C4CC45CCN(c4ccc(Nc6ncc7c(C)c(C(C)=O)c(=O)n(C8CCCC8)c7n6)nc4)CC5)C3)C2)n1 (centres unmarked) [CPD-439, 6-(6-((6-acetyl-8-cyclopentyl-5-methyl-7-oxo-7,8-dihydropyrido[2,3-d]pyrimidin-2-yl)amino)pyridin-3-yl)-N-(6-((3-((6-(dimethylamino)pyridazin-3-yl)carbamoyl)-6-((methyl-d3)amino)pyridin-2-yl)amino)spiro[3.3]heptan-2-yl)-6-azaspiro[2.5]octane-1-carboxamide] | < 50 nM
16 | CC(=O)c1c(C)c2cnc(Nc3ccc(N4CCN(CC(=O)NC5CC6(C5)CC(Nc5nc(NC(C)C)ccc5C(=O)Nc5cc7n(n5)CCC7)C6)CC4)cn3)nc2n(C2CCCC2)c1=O (centres unmarked) [CPD-440, 2-((6-(2-(4-(6-((6-acetyl-8-cyclopentyl-5-methyl-7-oxo-7,8-dihydropyrido[2,3-d]pyrimidin-2-yl)amino)pyridin-3-yl)piperazin-1-yl)acetamido)spiro[3.3]heptan-2-yl)amino)-N-(5,6-dihydro-4H-pyrrolo[1,2-b]pyrazol-2-yl)-6-(isopropylamino)nicotinamide] | < 50 nM
17 | [2H]C([2H])([2H])Nc1ccc(C(=O)Nc2ccc(N(C)C)nn2)c(NC2CCN(C(=O)CN3CCC4(CCN(c5ccc(Nc6ncc7c(C)c(C(C)=O)c(=O)n(C8CCCC8)c7n6)nc5)C4)C3)CC2)n1 (centres unmarked) [CPD-441, 2-((1-(2-(7-(6-((6-acetyl-8-cyclopentyl-5-methyl-7-oxo-7,8-dihydropyrido[2,3-d]pyrimidin-2-yl)amino)pyridin-3-yl)-2,7-diazaspiro[4.4]nonan-2-yl)acetyl)piperidin-4-yl)amino)-N-(6-(dimethylamino)pyridazin-3-yl)-6-((methyl-d3)amino)nicotinamide] | < 50 nM
